Data reported in patent US20150175655A1 (priority 2012, published 2015).

Legend:
Assay type in all cases: cell-based
[1] = test system: genotype 1b transient HCV replicon, NS3/4a protease inhibitor resistant variant D168A, in Huh-7-derived cells; test: Transient-transfected HCV replicon EC50, genotype 1b D168A; details: Hepatitis C virus, 72 h, read-out: EC50 1B D168A
[2] = test system: genotype 1a stable HCV replicon (H77 strain) in Huh-7-derived cells; test: Stable subgenomic HCV replicon EC50, genotype 1a (Renilla luciferase); details: Hepatitis C virus, stable replicon genotype 1a, 72 h, read-out: EC50 1A RLUC
Procedure: (§1) Antiviral potency (EC50) was determined in both stable subgenomic HCV replicon cell lines and transient-transfected HCV replicon cells. The term half maximal effective concentration (EC50) refers to the concentration of a drug which induces a response halfway between the baseline and maximum after the exposure time specified below.
(§2) Stable subgenomic HCV replicons for genotype 1a, 1 b, 2a, 3a, and 4a were established in Huh-7-derived cells as described by Lohmann et al (Lohmann V, Korner F, Koch J, et al Replication of subgenomic hepatitis C virus RNAs in a hepatoma cell line. Science 1999; 285:119-3). Each stable cell line contains a bicistronic HCV replicon that encodes a humanized Renilla luciferase (hRLuc) reporter gene fused to a selectable neomycin-resistance gene, followed by an EMCV IRES and the NS3-NS5B coding region of HCV. […] Luciferase activity was measured as a marker for intracellular HCV replication levels.
(§3) The genotype 1a stable replicon was derived from the H77 HCV strain and contained adaptive mutations P1496L and S2204I. The genotype 1 b stable replicon was derived from the Cont HCV strain and contained adaptive mutations E1202G, T1280I, and K1846T. […] The genotype 3a stable replicon was derived from the S52 HCV strain and contained adaptive mutations P1121 L, A1198T and S2210I (equivalent to S2204I in genotype 1). The genotype 4a stable replicon was derived from the ED43 HCV strain and contained adaptive mutations Q1691R and S2204I. All replicon cell lines were propagated in Huh-7-derived cells and maintained in Dulbecco's modified Eagle's Medium (DMEM) supplemented with 10% fetal bovine serum (FBS) and 0.5 mg/mL G418.
(§4) To perform EC50 assays, cells from each HCV replicon were dispensed into 384-well plates. Compounds were dissolved in DMSO at a concentration of 10 mM and diluted in DMSO using an automated pipetting instrument. Three-fold serially diluted compounds were directly added to the cells using an automated instrument. […] Seventy-two hours later, cells were lysed and Renilla luciferase activity were quantified as recommended by the manufacturer (Promega-Madison, Wis.). Non-linear regression was performed to calculate EC50 values.

[3] = test system: genotype 2a stable HCV replicon (JFH-1 strain) in Huh-7-derived cells; test: Stable subgenomic HCV replicon EC50, genotype 2a (Renilla luciferase); details: Hepatitis C virus, stable replicon genotype 2a, 72 h, read-out: EC50 2A RLUC
Procedure: as §1, §2, §3, §4

[4] = test system: genotype 4a stable HCV replicon (ED43 strain) in Huh-7-derived cells; test: Stable subgenomic HCV replicon EC50, genotype 4a (Renilla luciferase); details: Hepatitis C virus, 72 h, read-out: EC50 4A RLUC
Procedure: as §1, §2, §3, §4

[5] = test system: genotype 3a transient HCV replicon (S52 strain) in Huh-7-derived cells; test: Transient-transfected HCV replicon EC50, genotype 3a wild type; details: Hepatitis C virus; transient-transfected replicon genotype 3a wild type, 72 h; read-out: EC50 3A WT

## C[C@@H]1[C@@H]2CN(C(=O)[C@H](C(C)(C)C)NC(=O)O[C@@H]3C[C@H]3CCCCC(F)(F)c3nc4ccc(Cl)cc4nc3O2)[C@@H]1C(=O)N[C@]1(C(=O)NS(=O)(=O)C2(C)CC2)C[C@H]1C(F)F [Example 88, (1aR,5S,8S,9S,10R,22aR)-5-tert-butyl-14-chloro-N-[(1R,2R)-2-(difluoromethyl)-1-{[(1-methylcyclopropyl)sulfonyl]carbamoyl}cyclopropyl]-18,18-difluoro-9-methyl-3,6-dioxo-1,1a,3,4,5,6,9,10,18,19,20,21,22,22a-tetradecahydro-8H-7,10-methanocyclopropa[18,19][1,10,3,6]dioxadiazacyclononadecino[11,12-b]quinoxaline-8-carboxamide]
[1]
  EC50: 24 nM
[2]
  EC50: 9.3 nM
[3]
  EC50: 2.7 nM
[4]
  EC50: 4.1 nM
[5]
  EC50: 35 nM

## CC[C@@H]1[C@@H]2CN(C(=O)[C@H](C(C)(C)C)NC(=O)O[C@]3(C)CCC[C@H]3CCCCCc3nc4ccc(OC)cc4nc3O2)[C@@H]1C(=O)N[C@]1(C(=O)NS(=O)(=O)C2(C)CC2)C[C@H]1CC(F)F [Example 41, (3aR,7S,10S,11S,12R,24aR)-7-tert-butyl-N-[(1R,2S)-2-(2,2-difluoroethyl)-1-{[(1-methylcyclopropyl)sulfonyl]carbamoyl}cyclopropyl]-11-ethyl-16-methoxy-3a-methyl-5,8-dioxo-1,2,3,3a,5,6,7,8,11,12,20,21,22,23,24,24a-hexadecahydro-10H-9,12-methanocyclopenta[18,19][1,10,3,6]dioxadiazacyclononadecino[11,12-b]quinoxaline-10-carboxamide]
[2]
  EC50: 135 nM
[3]
  EC50: 106 nM
[5]
  EC50: 539 nM

## CC[C@@H]1[C@@H]2CN(C(=O)[C@H](C(C)(C)C)NC(=O)O[C@@H]3C[C@H]3CC/C=C/C(F)(F)C3Nc4ccc(C#N)cc4N=C3O2)[C@@H]1C(=O)N[C@]1(C(=O)NS(=O)(=O)C2(C)CC2)C[C@H]1C(F)F (stereo partly drawn) [Example 78, (1aR,5S,8S,9S,10R,19E,22aR)-5-tert-butyl-14-cyano-N-[(1R,2R)-2-(difluoromethyl)-1-{[(1-methylcyclopropyl)sulfonyl]carbamoyl}cyclopropyl]-9-ethyl-18,18-difluoro-3,6-dioxo-1,1a,3,4,5,6,9,10,17,17a,18,21,22,22a-tetradecahydro-8H-7,10-methanocyclopropa[18,19][1,10,3,6]dioxadiazacyclononadecino[11,12-b]quinoxaline-8-carboxamide]
[1]
  EC50: 248 nM
[2]
  EC50: 267 nM
[3]
  EC50: 195 nM
[4]
  EC50: 225 nM
[5]
  EC50: 194 nM

## COc1ccc2nc3c(nc2c1)O[C@H]1CN(C(=O)[C@H](C(C)(C)C)NC(=O)O[C@@H]2C[C@H]2CCCCC3F)[C@H](C(=O)N[C@]2(C(=O)NS(=O)(=O)C3(C)CC3)C[C@H]2C(F)F)[C@@H]1C (stereo partly drawn) [Example 47, (1aR,5S,8S,9S,10R,22aR)-5-tert-butyl-N-[(1R,2R)-2-(difluoromethyl)-1-{[(1-methylcyclopropyl)sulfonyl]carbamoyl}cyclopropyl]-18-fluoro-14-methoxy-9-methyl-3,6-dioxo-1,1a,3,4,5,6,9,10,18,19,20,21,22,22a-tetradecahydro-8H-7,10-methanocyclopropa[18,19][1,10,3,6]dioxadiazacyclononadecino[11,12-b]quinoxaline-8-carboxamide]
[1]
  EC50: 12 nM
[2]
  EC50: 3.8 nM
[3]
  EC50: 12 nM
[4]
  EC50: 4.2 nM
[5]
  EC50: 17 nM
